Where two headings read alike, the source gives them in different places.
What was measured:
[1] = biological target: T1, human muscarinic receptors (M3) (Homo sapiens, UniProt P20309); test: Muscarinic Receptor Radioligand Binding Assay ([3H]-NMS); conditions: membranes expressing human M3
T1 construct: purchased
Description: The inhibitory effects of compounds of the muscarinic antagonists were determined by a Muscarinic Receptor Radioligand Binding Assay.
Radioligand binding studies utilising [^3H]-N-methyl scopolamine ([^3H]-NMS) and commercially available cell membranes expressing the human muscarinic receptors (M2 or M3) were used to assess the affinity of muscarinic antagonists for M2 and M3 receptors. Membranes in TRIS buffer were incubated in 96-well plates with [^3H]-NMS and M3 antagonist at various concentrations for 3 hours. Membranes and bound radioligand were then harvested by filtration and allowed to dry overnight. Scintillation fluid was then added and the bound radioligand counted using a Canberra Packard Topcount scintillation counter

[2] = Gravimetric vapour sorption (GVS); assay type: physicochemical; conditions: at 80% RH, ambient temperature
Description: GVS profiles were measured using a Dynamic Vapour Sorption DVS-1 instrument. The solid sample ca. 1-5 mg was placed into a glass vessel and the weight of the sample was recorded during a dual cycle step method (40 to 90 to 0 to 90 to 0% relative humidity (RH), in steps of 10% RH). GVS profiles were recorded at ambient temperature.

[3] = tested on: isolated guinea-pig tracheal rings precontracted with methacholine; test: Isolated tracheal rings from guinea-pig preconstricted with methacholine; assay type: cell-based; conditions: for % inhibition of 1 μM Methacholine induced tone: Formoterol 1 nM, Compound A or B 10 nM; for inhibition at 0.001 µM: Cavia porcellus, read-out: % inhibition of 1 μM Methacholine induced tone
Description: Evaluation of Compound Activity on Isolated Tracheal Rings from Guinea-Pig Preconstricted with Methacholine. […] Male albino Dunkin Hartley guinea-pigs (300-350 g) were killed by cervical dislocation and the trachea excised. Adherent connective tissue was removed and the trachea cut into ring segments (2-3 mm wide). These were suspended in 10 mL organ baths containing a modified Krebs solution composition (mM): NaCl 117.56, KCl 5.36, NaH2PO4 1.15, MgSO4 1.18, glucose 11.10, NaHCO3 25.00 and CaCl2 2.55. […] The tracheal rings were suspended between two stainless steel hooks, one attached to an isometric force transducer and the other to a stationary support in the organ bath. Changes in isometric force were recorded. Acetyl-β-methylcholine chloride (Methacholine), Indomethacin, Corticosterone-21-acetate, Phentolamine hydrochloride, Ascorbic acid, CGP20712A methanesulphate were obtained from the Sigma Chemical Company. […] At the beginning of each experiment a force of 1.0 g·wt. was applied to the tissues and this was reinstated over a 30 min equilibration period until it remained steady. […] Tissues were washed by exchanging the bathing Krebs solution three times. […] Data were collected using the ADInstruments Chart5 for windows software, the tension generated was measured before addition of methacholine and after its response had reached plateau. […] All responses were expressed as percentage inhibition of the methacholine-induced contraction. The results are depicted in FIG. 6 and Table 2, wherein compound A is (MA2). […] Tissues were washed by exchanging the bathing Krebs solution three times. […] Data were collected using the ADInstruments Chart5 for windows software, the tension generated was measured before addition of methacholine and after its response had reached plateau. […] All responses were expressed as percentage inhibition of the methacholine-induced contraction. The results are depicted in FIG. 7 and Table 3, wherein compound B is (MA11).

[4] = tested on: Methacholine-induced bronchoconstriction in the guinea pig; test: Lung function in anaesthetised guinea pigs: methacholine-induced bronchoconstriction; assay type: in vivo; conditions: after 5 μg/kg methacholine i.v.
Description: Evaluation of Lung Function in Anaesthetised Guinea Pigs.
Male Dunkin-Hartley guinea pigs (300-600 g) were weighed and dosed with vehicle (0.05M phosphate, 0.1% Tween 80, 0.6% saline, pH 6) or compound via the intratracheal route under recoverable gaseous anaesthesia (5% halothane in oxygen). Animals were dosed with compound or vehicle two hours prior to the administration of methacholine. Guinea pigs were anaesthetised with pentobarbitone (1 mL/kg of 60 mg/mL solution i.p.) approximately 30 minutes prior to the first bronchoconstrictor administration. The trachea was cannulated and the animal ventilated using a constant volume respiratory pump (Harvard Rodent Ventilator model 683) at a rate of 60 breath/min and a tidal volume of 5 mL/kg. A jugular vein was cannulated for the administration of methacholine or maintenance anaesthetic (0.1 mL of pentobarbitone solution, 60 mg/mL, as required).
The animals were transferred to a Flexivent System (SCIREQ, Montreal, Canada) in order to measure airway resistance. The animals were ventilated (quasi-sinusoidal ventilation pattern) at 60 breaths/min at a tidal volume of 5 mL/kg. A positive end expiratory pressure of 2-3 cm H2O was applied. Respiratory resistance was measured using the Flexivent “snapshot” facility (1 second duration, 1 Hz frequency). Once a stable baseline resistance value had been obtained the animals were given methacholine in ascending doses (0.5, 1, 2, 3 and 5 μg/kg, i.v) at approximately 4-minute intervals via the jugular catheter. After each administration of bronchoconstrictor the peak resistance value was recorded. Guinea pigs were euthanised with approximately 1.0 mL pentobarbitone sodium (Euthatal) intravenously after the completion of the lung function measurements.
Percentage bronchoprotection produced by a compound was calculated at each dose of brochoconstrictor as follows:
Where % change Rveh is the mean of the maximum percentage change in airway resistance in the vehicle treated group. The results reported were measured after 5 μg/kg methacholine and were expressed as percentage bronchoprotection (mean±s.e.mean).
Guinea pigs were dosed with vehicle, 3 and 27 μg/kg compound (BA1), 0.2 μg/kg compound (MA2) (Crystalline Form A) or a combination of 3 μg/kg Compound (BA1) and 0.2 μg/kg Compound (MA2) via the intratracheal route. Administration of increasing intravenous doses of methacholine (0.5, 1, 2, 3 and 5 μg/kg) evoked dose-related bronchoconstriction in the vehicle treated animals ranging from 13±2.6% at 0.5 μg/kg to 2530±280% at 5 μg/kg two hours after vehicle administration (n=9).
[…] Administration of increasing intravenous doses of methacholine (0.5, 1, 2, 3 and 5 μg/kg) evoked dose-related bronchoconstriction in the vehicle treated animals ranging from 14±2.6% at 0.5 μg/kg to 2240±269% at 5 μg/kg two hours after vehicle administration (n=10).

[5] = MA11 at 0.2 μg/kg intratracheal
[6] = MA2 0.2 μg/kg intratracheal, 2 hours prior to methacholine

T1 sequence (P20309 whole entry): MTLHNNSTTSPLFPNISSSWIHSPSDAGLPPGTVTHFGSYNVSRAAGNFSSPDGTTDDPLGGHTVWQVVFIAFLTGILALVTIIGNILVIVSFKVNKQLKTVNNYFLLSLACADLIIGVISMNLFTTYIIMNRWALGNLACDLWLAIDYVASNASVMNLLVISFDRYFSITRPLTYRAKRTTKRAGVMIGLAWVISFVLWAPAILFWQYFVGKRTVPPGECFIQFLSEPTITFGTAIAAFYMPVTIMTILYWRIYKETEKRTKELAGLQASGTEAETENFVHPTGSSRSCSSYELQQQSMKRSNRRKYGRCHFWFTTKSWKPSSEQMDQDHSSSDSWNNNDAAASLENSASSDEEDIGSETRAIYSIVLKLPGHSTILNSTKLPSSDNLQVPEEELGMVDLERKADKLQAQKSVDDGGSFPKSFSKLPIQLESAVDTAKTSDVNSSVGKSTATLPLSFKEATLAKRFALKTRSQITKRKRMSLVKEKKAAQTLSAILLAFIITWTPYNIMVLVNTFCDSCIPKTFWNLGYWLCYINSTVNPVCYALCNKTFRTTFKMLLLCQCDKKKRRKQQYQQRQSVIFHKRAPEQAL

SMILES: C[N+](C)(CCOCc1ccc(Cl)c(Cl)c1)Cc1cnc([C@](O)(c2ccccc2)C2CCCCC2)o1 [MA5, [2-((R)-Cyclohexyl-hydroxy-phenyl-methyl)-oxazol-5-ylmethyl]-[2-(3,4-dichloro-benzyloxy)-ethyl]-dimethyl-ammonium bromide]
- Ki [1]: 2.1 nM

SMILES: C[N+](C)(CCCOc1ccccc1)Cc1cnc([C@](O)(c2ccccc2)C2CCCCC2)o1 [MA7 Form 3, [2-((R)-Cyclohexyl-hydroxy-phenyl-methyl)-oxazol-5-ylmethyl]-dimethyl-(3-phenoxy-propyl)-ammonium hemi-naphthalene-1,5-disulfonate]
- GVS weight increase [2]: 3.0 % w/w

SMILES: C[N+](C)(CCOCc1ccc(Cl)cc1)Cc1cnc([C@](O)(c2ccccc2)C2CCCCC2)o1 [MA6, [2-(4-chloro-benzyloxy)-ethyl]-[2-((R)-cyclohexyl-hydroxy-phenyl-methyl)-oxazol-5-ylmethyl]-dimethyl-ammonium bromide]
- Ki [1]: 0.6 nM

SMILES: C[N+](C)(CCCOc1ccccc1)Cc1cnc([C@@](O)(c2ccccc2)C2CCCCC2)o1 [MA1, [2-((S)-Cyclohexyl-hydroxy-phenyl-methyl)-oxazol-5-ylmethyl]-dimethyl-(3-phenoxy-propyl)-ammonium bromide]
- Ki [1]: 9.4 nM

SMILES: C[N+](C)(CCOCc1ccc(Cl)cc1)Cc1cnc([C@](O)(c2ccccc2)C2CCCCC2)o1 [MA11, [2-(4-chloro-benzyloxy)-ethyl]-[2-((R)-cyclohexyl-hydroxy-phenyl-methyl)-oxazol-5-ylmethyl]-dimethyl-ammonium hemi-naphthalene-1,5-disulfonate]
- % inhibition of 1 μM Methacholine induced tone ([3]; 10 min): 11%
- % inhibition of 1 μM Methacholine induced tone ([3]; 20 min): 29%
- % inhibition of 1 μM Methacholine induced tone ([3]; 30 min): 49%
- % inhibition of 1 μM Methacholine induced tone ([3]; 40 min): 67%
- % inhibition of 1 μM Methacholine induced tone ([3]; 50 min): 84%
- increase in resistance [4, 5]: 1880±272%
- inhibition of methacholine-induced bronchoconstriction [4, 5]: 16%

SMILES: C[N+](C)(CCCOc1ccccc1)Cc1cnc([C@](O)(c2ccccc2)C2CCCCC2)o1 [MA7 Form 1, [2-((R)-Cyclohexyl-hydroxy-phenyl-methyl)-oxazol-5-ylmethyl]-dimethyl-(3-phenoxy-propyl)-ammonium hemi-naphthalene-1,5-disulfonate]
- GVS weight increase [2]: 3.1 % w/w

SMILES: C[N+](C)(CCOCCc1ccccc1)Cc1cnc([C@](O)(c2ccccc2)C2CCCCC2)o1 [MA3, [2-((R)-Cyclohexyl-hydroxy-phenyl-methyl)-oxazol-5-ylmethyl]-dimethyl-(2-phenethyloxy-ethyl)-ammonium bromide]
- Ki [1]: 0.6 nM

SMILES: COc1ccc(CC(C)NCC(O)c2ccc(O)c(NC=O)c2)cc1 (stereo not drawn) [Formoterol, N-[2-hydroxy-5-[(1)-1-hydroxy-2-[[(1)-2-(4-methoxyphenyl)-1-methylethyl]amino]ethyl]phenyl]-formamide, reference compound]
- inhibition at 0.001 µM ([3]; 10 min): 21%
- inhibition at 0.001 µM ([3]; 20 min): 37%
- inhibition at 0.001 µM ([3]; 0.5 h): 41%
- inhibition at 0.001 µM ([3]; 40 min): 42%
- inhibition at 0.001 µM ([3]; 50 min): 44%

SMILES: C[N+](C)(CCCOc1ccccc1)Cc1cnc([C@](O)(c2ccccc2)C2CCCCC2)o1.[Br-] [MA2, [2-((R)-Cyclohexyl-hydroxy-phenyl-methyl)-oxazol-5-ylmethyl]-dimethyl-(3-phenoxy-propyl)-ammonium bromide]
- % inhibition of 1 μM Methacholine induced tone ([3]; 10 min): 23%
- % inhibition of 1 μM Methacholine induced tone ([3]; 20 min): 62%
- % inhibition of 1 μM Methacholine induced tone ([3]; 30 min): 94%
- % inhibition of 1 μM Methacholine induced tone ([3]; 40 min): 104%
- % inhibition of 1 μM Methacholine induced tone ([3]; 50 min): 106%
- Ki [1]: 0.2 nM
- increase in resistance [4, 6]: 2210±268%
- inhibition of methacholine-induced bronchoconstriction [4, 6]: 13%

SMILES: C[N+](C)(CCCOc1ccc(Cl)c(Cl)c1)Cc1cnc([C@](O)(c2ccccc2)C2CCCCC2)o1 [MA4, [2-((R)-Cyclohexyl-hydroxy-phenyl-methyl)-oxazol-5-ylmethyl]-[3-(3,4-dichloro-phenoxy)-propyl]-dimethyl-ammonium bromide]
- Ki [1]: 0.9 nM

From patent publication US20110046191A1, “COMBINATION OF A MUSCARINIC RECEPTOR ANTAGONIST AND A BETA-2-ADRENOCEPTOR AGONIST” (ARGENTA DISCOVERY LTD., priority 2007, published 2011)
